Laboratory results published in patent US20150183890A1, “Methods for Formation of Cyclodextrin-Ursolic Acid Inclusion Complex” (Campbell Industries, priority 2013, published 2015).

Experiment: Aqueous solubility of cyclodextrin-ursolic acid inclusion complex versus ursolic acid alone
Format: physicochemical
Conditions: aqueous solutions; CDUA compared with UA alone

C[C@H]1[C@H](C)CC[C@]2(C(=O)O)CC[C@]3(C)C(=CC[C@@H]4[C@@]5(C)CC[C@H](O)C(C)(C)[C@@H]5CC[C@]43C)[C@H]12 [UA, 3-β-hydroxy-urs-12-en-28-oic acid]
aqueous solubility (in words): largely insoluble
